We go through one molecule from patent publication US20090209503A1, “COLONIC DELIVERY THERAPEUTIC AGENTS FOR INFLAMMATORY BOWEL DISEASE” (AJINOMOTO CO. INC., priority 2005, published 2009).

The subject of data set [1] is epithelial injuries in the upper digestive tracts such as the stomach and the duodenum. The note with it: dose of about 2 g a day; Non-patent Literatures 8 and 9; cited from earlier work.
Data set [2] concerns rat models of TNBS. The note with it: 0.25 to 0.4 g/kg via the large intestinal route; Non-patent Literatures 13 and 14; cited from earlier work.
The test system of data set [3] is patients with ulcerative colitis. Briefly: Example 1: 2 g L-glutamine enema, frequencies of bowel movements and diarrhea, blood feces scores. The data set is classed as in vivo, humans. Further details: key to Blood feces score, Aft. admin.: blood feces score averaged per day: 0 = none, 1 = less, 3 = a lot. How it is done:
Further, 60 mL of an enema agent prepared by adding 2 g of L-glutamine to sterilized water was administered via the large intestinal route to the patients with ulcerative colitis having the same symptoms as mentioned above (Case Nos. 5 and 9 to 14).
In addition, the patients with ulcerative colitis of Comparative Example and Example take a 5-ASA agent(s) (“Pentasas” or “Salazopyrin®”) as an oral agent conforming to dosage and administration.
The frequencies of bowel movements and diarrhea, and blood feces scores were measured of these patients.

Data set [4] shares this test system. Description: Comparative Example 1: 10 g L-glutamine via the large intestinal route, frequencies of bowel movements and diarrhea. The data set is classed as in vivo, humans. The protocol:
10 g of L-glutamine was added to 60 mL of “Predonema®” Enema, and the mixture was administered via the large intestinal route to patients with ulcerative colitis. The frequencies of bowel movements and diarrhea were measured. […] Meanwhile, the patients were treated with “Predonema®” from Day 1 to Day 14, and 60 mL of “Predonema®” Enema prepared by adding 10 g of L-glutamine thereto was administered via the large intestinal route to the patients from Day 15 to Day 28.

The subject of data set [5] is DSS model in mice (ulcerative colitis developed by 5% DSS water). Briefly: Drug efficacy test by enema administration of glutamine on DSS model in mice. The data set is classed as in vivo, mouse. The note with it: sixth day after start of drinking DSS water, FIG. 1. The protocol: 5% DSS water (dissolving dextran sulfate sodium in tap water) was drank ad lib by a male C57BL/6 Cr Slc mouse of 8 weeks old, and it developed ulcerative colitis. From one day before starting drinking of DSS water, L-glutamine was administered via the large intestinal route to the mouse once a day. An enema agent (solution) having the composition of 0.5% (w/v) carboxymethylcellulose—sodium was used as the enema agent. As the disease activity index, each average value of body weight scores, blood feces scores and diarrhea scores was calculated referring to the report of HS. Cooper et al. (Laboratory Investigation 1993; 69(2): 238).

The mark [6] stands for this setting: 2 g L-glutamine enema, with or without Predonema.
[7] abbreviates: 2 g L-glutamine enema, oral 5-ASA agent.

Where “and” joins values, the source holds several entries; their conditions need not be identical. Identical values can stand only once.

As for `NC(=O)CC[C@H](N)C(=O)O` [Gln, L-glutamine], the “effectiveness against epithelial injuries in the upper digestive tracts” value in data set [1] is “effective”. The “effectiveness in animal enteritis models” value in data set [2] is “effective”. In addition, in data set [3] (setting [6]), the “frequency of bowel movements (summary of Table 1)” value is reported as “maintained the frequency of bowel movements” and the “improvement in blood feces (summary of Table 1)” value is “improvement in blood feces was recognized in all cases”. Further, the “diarrhea (summary of Table 1)” value in data set [3] (2 g L-glutamine enema, as shown in Case Nos. 4 and 5) is given as “able to improve diarrhea”. For the same molecule, in data set [3] (setting [7]), the “cases in which the blood feces improved” value is reported as 3 out of 7 and the “improvement rate (blood feces)” value came out at 43%. For the same molecule, the “Blood feces score, Aft. admin.” value in data set [3] (2 g L-glutamine in 60 mL enema, admin. period 14-39 per case, oral 5-ASA agent, single patient, average per day, no blood feces: 0, less: 1, a lot: 3) was 1.3 and 1.0 (2×) and 0.8 and 0.9. Moreover, the “Freq. of bowel movement, Aft. admin.” value in data set [3] (2 g L-glutamine in 60 mL enema, large intestinal route, admin. period 14-39 per case, all with oral 5-ASA agent, single patient) was 5.0 per a day and 5.3 per a day and 2.3 per a day and 13.9 per a day and 14.1 per a day. The “freq. of diarrhea, Aft. admin.” value in data set [3] (2 g L-glutamine in 60 mL enema, large intestinal route, admin. period 14-39 per case, all with oral 5-ASA agent, single patient, number in ( )) was 0.1 per a day and 0.4 per a day and 0.0 per a day (2×) and 2.6 per a day. For the same molecule, the “course of administration (stopped for aggravation of symptoms after starting administration)” value in data set [3] (2 g L-glutamine in 60 mL sterilized water enema, oral 5-ASA agent, single patient) is listed as “Stopped for aggravation”. Also, the “Freq. of bowel movement, Bef. admin.” value in data set [3] (baseline before administration, single patient (Case No.), average value per day of the period) was 4.5 per a day and 5.4 per a day and 2.5 per a day and 4.2 per a day and 6.7 per a day. Besides, in data set [3] (baseline before administration, single patient (Case No.), number in ( )), the “freq. of diarrhea, Bef. admin.” value was 2.0 per a day and 0.9 per a day and 0.0 per a day (2×) and 1.5 per a day. Further, the “Blood feces score, Bef. admin.” value in data set [3] (baseline before administration, single patient, average per day, no blood feces: 0, less: 1, a lot: 3) was 2.2 and 1.3 (2×) and 0.8 and 1.0. Also, the “frequency of bowel movements” value in data set [4] (10 g L-glutamine added to 60 mL Predonema Enema, Day 15 to Day 28, after Predonema alone Day 1 to Day 14, oral 5-ASA agent, FIG. 2) was “increased”. Moreover, in data set [4] (10 g L-glutamine added to 60 mL Predonema Enema, Day 15 to Day 28, oral 5-ASA agent), the “blood feces (observation of feces)” value is given as “improving effect of blood feces was recognized”. The “frequency of bowel movements” value in data set [4] (10 g of L-glutamine via the large intestinal route to humans) is “frequency of bowel movements increases”. In data set [5] (30 mg/kg once a day via the large intestinal route), the “disease activity index (average of body weight, blood feces and diarrhea scores) versus vehicle-treated group” value was “no significant difference”. For the same molecule, in data set [5] (100 mg/kg once a day via the large intestinal route), the “disease activity index (average of body weight, blood feces and diarrhea scores) versus vehicle-treated group” value is on record as “no significant difference”.
